Changes are numbered by the printed parent chain.
Assays:
[1] = target: T1, 5-hydroxytryptamine receptor 2C (Homo sapiens, UniProt P28335); assay: [3H]Mesulergine Binding Assay; conditions: pH 7.4
T1 sequence (P28335 whole entry): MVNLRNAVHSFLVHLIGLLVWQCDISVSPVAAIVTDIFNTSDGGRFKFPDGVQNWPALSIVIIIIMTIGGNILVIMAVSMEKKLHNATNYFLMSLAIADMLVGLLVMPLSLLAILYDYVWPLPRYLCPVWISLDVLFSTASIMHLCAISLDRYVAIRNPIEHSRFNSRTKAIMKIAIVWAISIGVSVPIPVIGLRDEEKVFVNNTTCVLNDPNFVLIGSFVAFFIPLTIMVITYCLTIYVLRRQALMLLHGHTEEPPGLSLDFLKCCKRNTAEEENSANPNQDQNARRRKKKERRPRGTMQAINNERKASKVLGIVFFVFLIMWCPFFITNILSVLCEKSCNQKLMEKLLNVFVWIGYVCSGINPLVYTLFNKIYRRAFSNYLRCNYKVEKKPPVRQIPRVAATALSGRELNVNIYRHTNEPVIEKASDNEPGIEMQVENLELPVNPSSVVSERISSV
Experimental: (§1) Frozen membranes from a stable CHO-K1 cell line expressing the human recombinant 5-HT2C receptor (PerkinElmer) were used. For the binding assay, [3H]mesulergine (1 nM; Amersham Biosciences, Buckinghamshire, UK), receptor membrane, and test compounds were added into 50 mM Tris-HCl (pH 7.4) buffer containing 0.1% ascorbic acid and 4 mM CaCl2. Nonspecific binding was determined using 100 μM mianserin. The incubations were performed for 60 min at 27°C, and these were terminated by rapid filtration through a Filtermat A glass fiber filter presoaked in 0.5% PEI.

[2] = target: 5-hydroxytryptamine receptor 7 (Homo sapiens, UniProt P34969); assay: [3H] LSD Binding Assay; conditions: pH 7.4; 27 °C
Experimental: (§2) For receptor binding assays, human 5-HT6 and 5-HT7 serotonin receptors expressed in CHO-K1 cells (PerkinElmer) were used. For 5-HT6 receptor binding, frozen membrane, 1 nM [3H]LSD (lysergic acid diethylamide; PerkinElmer), and appropriate concentrations of test compounds were added to 0.25 mL of 50 mM Tris-HCl (pH 7.4) buffer containing 0.1% ascorbic acid and 4 mM CaCl2. Nonspecific binding was determined using 10 μM methiothepin. The incubations were performed for 60 min at 27 °C, and these were terminated by rapid filtration through a Filtermat A glassfiber filter presoaked in 0.5% PEI. For the 5-HT7 receptor binding assay, cell membrane, 3 nM [3H]LSD, and appropriate concentrations of test compounds were added to 0.25 mL of 50 mM Tris-HCl (pH 7.4) buffer containing 10 mM MgSO4 and 0.5 mM EDTA. The mixture was incubated for 120 min at 27 °C, and the reaction was terminated by rapid filtration through a Filtermat A glass fiber filter presoaked in 0.3% PEI. Nonspecific binding was determined using 10 μM methiothepin.

[3] = target: 5-hydroxytryptamine receptor 6 (Homo sapiens, UniProt P50406); assay: [3H] LSD Binding Assay; conditions: pH 7.4; 27 °C
Experimental: as §2

[4] = target: T2, 5-hydroxytryptamine receptor 1A (Homo sapiens, UniProt P08908); assay: [3H]8-OH-DPAT Binding Assay; conditions: pH 7.4; 27 °C
T2 sequence (P08908 whole entry): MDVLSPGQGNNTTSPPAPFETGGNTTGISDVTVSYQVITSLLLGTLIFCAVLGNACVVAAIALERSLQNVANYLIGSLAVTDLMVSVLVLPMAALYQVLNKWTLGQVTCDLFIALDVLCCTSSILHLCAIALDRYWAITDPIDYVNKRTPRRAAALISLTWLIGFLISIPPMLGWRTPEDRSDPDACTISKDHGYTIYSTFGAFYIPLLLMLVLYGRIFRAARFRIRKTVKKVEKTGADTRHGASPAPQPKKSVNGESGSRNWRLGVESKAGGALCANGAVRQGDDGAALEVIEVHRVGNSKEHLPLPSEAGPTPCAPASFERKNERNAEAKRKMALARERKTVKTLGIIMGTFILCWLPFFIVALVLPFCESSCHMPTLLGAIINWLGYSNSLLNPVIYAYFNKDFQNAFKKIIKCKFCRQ
Experimental: For the binding assay, aliquots of receptor membranes, 0.25 nM [3H]8-OH-DPAT (8-hydroxy-2-(di-N-propylamino)tetralin, 154.3 Ci/mM; New England Nuclear, Boston, MA) and appropriate concentrations of test compounds were added to 0.25 mL of 50 mM Tris-HCl (pH 7.4) buffer containing 10 mM MgSO4, 0.5 mM ethylenediaminetetraacetic acid (EDTA), and 0.1% ascorbic acid. Incubations were carried out for 60 min at 27 °C, and these were terminated by rapid filtration using a MicroBeta FilterMate-96 harvester (PerkinElmer) through a Filtermat A glass fiber filter presoaked in 0.3% polyethylenimine (PEI). The filter was washed with ice-cold 50 mM Tris-HCl buffer solution (pH 7.4), and was then covered with MeltiLex, sealed in a sample bag, and dried in an oven.

[5] = target: 5-hydroxytryptamine receptor 2A (Homo sapiens, UniProt P28223); assay: [3H]Ketanserin Binding Assay; conditions: pH 7.4
Experimental: For serotonin 5-HT2A binding, an aliquot of frozen membrane from a CHO-K1 cell line expressing the human recombinant 5-HT2A receptor (PerkinElmer) and [3H]ketanserin (1 nM; PerkinElmer) were used in the presence of mianserin (20 μM) as nonspecific. The reaction mixture was incubated for 60 min at 27°C using 50 mM Tris-HCl (pH 7.4) buffer containin 4 mM CaCl2 and 0.1% ascorbic acid, and harvested through a Filtermat A glass fiber filter presoaked in 0.5% PEI.

[6] = target: T3, 5-hydroxytryptamine receptor 2C (Homo sapiens, UniProt P28335); assay: [3H]Mesulergine Binding Assay; conditions: pH 7.4; remark: listed apart in the source
T3 sequence (P28335 whole entry): T1 sequence (P28335 whole entry) with C23S
Experimental: as §1

Chain of 5-hydroxytryptamine receptor 7 (P34969 whole entry): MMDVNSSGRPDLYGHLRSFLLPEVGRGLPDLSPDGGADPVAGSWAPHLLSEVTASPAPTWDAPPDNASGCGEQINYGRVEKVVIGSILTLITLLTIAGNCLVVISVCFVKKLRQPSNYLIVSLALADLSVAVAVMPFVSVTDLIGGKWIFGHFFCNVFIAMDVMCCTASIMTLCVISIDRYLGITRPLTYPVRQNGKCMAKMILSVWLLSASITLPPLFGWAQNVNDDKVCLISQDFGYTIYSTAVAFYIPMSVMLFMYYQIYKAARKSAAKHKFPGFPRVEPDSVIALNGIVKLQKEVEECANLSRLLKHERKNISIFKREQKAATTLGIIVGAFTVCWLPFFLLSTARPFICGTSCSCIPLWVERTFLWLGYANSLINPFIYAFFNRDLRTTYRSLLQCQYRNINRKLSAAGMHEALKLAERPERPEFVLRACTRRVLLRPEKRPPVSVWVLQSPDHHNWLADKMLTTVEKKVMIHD
Chain of 5-hydroxytryptamine receptor 2A (P28223 whole entry): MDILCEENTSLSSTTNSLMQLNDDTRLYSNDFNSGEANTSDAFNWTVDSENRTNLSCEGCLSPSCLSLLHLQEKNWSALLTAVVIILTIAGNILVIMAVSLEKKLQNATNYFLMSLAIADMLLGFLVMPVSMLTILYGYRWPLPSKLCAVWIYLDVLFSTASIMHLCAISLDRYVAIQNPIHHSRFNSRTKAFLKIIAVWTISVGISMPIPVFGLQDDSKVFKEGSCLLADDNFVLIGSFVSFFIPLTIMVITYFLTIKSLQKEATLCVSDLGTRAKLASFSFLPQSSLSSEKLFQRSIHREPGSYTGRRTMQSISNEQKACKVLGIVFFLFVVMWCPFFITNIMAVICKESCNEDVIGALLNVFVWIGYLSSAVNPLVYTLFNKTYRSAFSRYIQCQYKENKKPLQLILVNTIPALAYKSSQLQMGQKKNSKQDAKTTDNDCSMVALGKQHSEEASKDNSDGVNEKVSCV
Chain of 5-hydroxytryptamine receptor 6 (P50406 whole entry): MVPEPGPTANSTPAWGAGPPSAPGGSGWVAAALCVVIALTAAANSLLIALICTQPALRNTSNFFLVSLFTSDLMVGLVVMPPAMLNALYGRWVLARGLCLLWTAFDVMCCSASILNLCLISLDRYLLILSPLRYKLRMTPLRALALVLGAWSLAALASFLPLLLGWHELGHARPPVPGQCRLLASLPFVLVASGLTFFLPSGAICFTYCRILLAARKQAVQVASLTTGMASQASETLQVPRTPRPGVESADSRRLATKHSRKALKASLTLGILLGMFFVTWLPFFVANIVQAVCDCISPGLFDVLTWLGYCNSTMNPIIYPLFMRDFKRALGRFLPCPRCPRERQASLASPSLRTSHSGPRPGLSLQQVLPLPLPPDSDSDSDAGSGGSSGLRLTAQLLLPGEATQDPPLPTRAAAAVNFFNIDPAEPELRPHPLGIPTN

Compound: CCCCCCNC(=O)/C=C/c1cc(OC)c(OC)c(OC)c1 [(E)-N-Hexyl-3-(3,4,5-trimethoxyphenyl) acrylamide (1d)]
- IC50 [1]: > 10 µM
- IC50 [2]: > 10 µM
- IC50 [3]: > 10 µM
- IC50 [4]: 3.8 µM
- IC50 [5]: > 10 µM

Compound: C=CCNC(=O)/C=C/c1cc(OC)c(OC)c(OC)c1 [(E)-N-Allyl-3-(3,4,5-trimethoxyphenyl) acrylamide (1b)]
- IC50 [1]: > 10 µM
- IC50 [2]: > 10 µM
- IC50 [3]: > 10 µM
- IC50 [4]: 5.9 µM
- IC50 [5]: > 10 µM

Compound: CCCCCCCCNC(=O)/C=C/c1cc(OC)c(OC)c(OC)c1 [(E)-N-Octyl-3-(3,4,5-trimethoxyphenyl) acrylamide (1e)]
- IC50 [6]: 8.8 µM
- IC50 [2]: > 10 µM
- IC50 [3]: > 10 µM
- IC50 [4]: 1.2 µM
- IC50 [5]: > 10 µM

Compound: COc1cc(/C=C/C(=O)O)cc(OC)c1OC [3,4,5-Trimethoxycinnamic acid (TMCA)]
- IC50 [6]: 2.5 µM
- IC50 [2]: > 10 µM
- IC50 [3]: > 10 µM
- IC50 [4]: 7.6 µM
- IC50 [5]: > 10 µM

Compound: CNC(=O)/C=C/c1cc(OC)c(OC)c(OC)c1 [(E)-N-Methyl-3-(3,4,5-trimethoxyphenyl) acrylamide (1a)]
- IC50 [1]: > 10 µM
- IC50 [2]: > 10 µM
- IC50 [3]: > 10 µM
- IC50 [4]: 5.6 µM
- IC50 [5]: > 10 µM

Compound: CCCCNC(=O)/C=C/c1cc(OC)c(OC)c(OC)c1 [(E)-N-Butyl-3-(3,4,5-trimethoxyphenyl) acrylamide (1c)]
- IC50 [1]: > 10 µM
- IC50 [2]: > 10 µM
- IC50 [3]: > 10 µM
- IC50 [4]: 4.9 µM
- IC50 [5]: > 10 µM

Compound: CCCCCCCCCCNC(=O)/C=C/c1cc(OC)c(OC)c(OC)c1 [(E)-N-Decyl-3-(3,4,5-trimethoxyphenyl) acrylamide (1f)]
- IC50 [6]: 4.5 µM
- IC50 [2]: 6.7 µM
- IC50 [3]: 5.6 µM
- IC50 [4]: 2.1 µM
- IC50 [5]: 6.8 µM
